Assay [1] concerns MCF7. Nature of the assay: cells. Conditions: Homo sapiens, MCF7, 48 h.
Description: Cytotoxicity against human MCF7 cells after 48 hrs by MTT assay
Assay [2] in a line: Cytotoxicity against human DU145 cells after 48 hrs by MTT assay. Conditions: DU-145, 48 h. The assay is classed as functional, cell-based. A general note: Formazan colour is commonly taken as a measure of viable cells.
The test system of assay [3] is HT-29. As to the kind of experiment: Cytotoxicity against human HT-29 cells after 48 hrs by MTT assay. The conditions noted are these: HT-29, 48 h. It counts as functional, cell-based.
For assay [4], the system named is A549. As to the kind of experiment: cells. The conditions noted are these: Homo sapiens, A549, 48 h.
Description: Cytotoxicity against human A549 cells after 48 hrs by MTT assay
In assay [5] the test system is HepG2. Nature of the assay: cells. The conditions noted are these: Homo sapiens, HepG2, 48 h.
Description: Cytotoxicity against human HepG2 cells after 48 hrs by MTT assay
The test system of assay [6] is HT-29. As to the kind of experiment: Cell cycle arrest in human HT-29 cells assessed as accumulation at sub G1 phase at 10 nM after 48 hrs by propidium iodide staining based flow cytometry (reference value: 1.00%). The assay is classed as functional.
The test system of assay [7] is HT-29. Nature of the assay: Cell cycle arrest in human HT-29 cells assessed as accumulation at S phase at 10 nM after 48 hrs by propidium iodide staining based flow cytometry (reference value: 3.02%). It counts as functional.
The test system of assay [8] is HT-29. As to the kind of experiment: Cell cycle arrest in human HT-29 cells assessed as accumulation at G2/M phase at 50 nM after 48 hrs by propidium iodide staining based flow cytometry (reference value: 12.47%). The assay is classed as functional.
In assay [9] the test system is HT-29. As to the kind of experiment: Cell cycle arrest in human HT-29 cells assessed as accumulation at S phase at 50 nM after 48 hrs by propidium iodide staining based flow cytometry (reference value: 3.02%). It counts as functional. For orientation: Flow cytometry measures light scatter and fluorescence of single cells or particles in a stream.
Assay [10] relates to HT-29. As to the kind of experiment: Induction of apoptosis in human HT-29 cells assessed as reduction in mitochondrial membrane potential at 10 nM after 48 hrs by JC-1 staining based flow cytometry (reference value: 94.3%). The assay is classed as functional. Also on record: scale not given: the % may be the effect or the level left.
Assay [11] has as its system HT-29. As to the kind of experiment: Cell cycle arrest in human HT-29 cells assessed as accumulation at G0/G1 phase at 10 nM after 48 hrs by propidium iodide staining based flow cytometry (reference value: 83.01%). It counts as functional.
The subject of assay [12] is HT-29. Nature of the assay: Induction of apoptosis in human HT-29 cells assessed as early apoptotic cells at 50 nM after 48 hrs by Annexin V-FITC/PI staining based flow cytometry (Rvb=1.30%). The assay is classed as functional.
The subject of assay [13] is HT-29. Nature of the assay: Cell cycle arrest in human HT-29 cells assessed as accumulation at sub G1 phase at 50 nM after 48 hrs by propidium iodide staining based flow cytometry (reference value: 1.00%). The assay is classed as functional.
For assay [14], the system named is HT-29. As to the kind of experiment: Induction of apoptosis in human HT-29 cells assessed as viable cells at 10 nM after 48 hrs by Annexin V-FITC/PI staining based flow cytometry (Rvb=93.82%). It counts as functional. Conditions: HT-29, 48 h, read-out: Activity.
Assay [15] deals with HT-29. Nature of the assay: Cell cycle arrest in human HT-29 cells assessed as accumulation at G0/G1 phase at 50 nM after 48 hrs by propidium iodide staining based flow cytometry (reference value: 83.01%). The assay is classed as functional.
Assay [16] relates to HT-29. As to the kind of experiment: Induction of apoptosis in human HT-29 cells assessed as reduction in mitochondrial membrane potential at 50 nM after 48 hrs by JC-1 staining based flow cytometry (reference value: 94.3%). Also on record: scale not given: the % may be the effect or the level left. It counts as functional.
Assay [17] relates to HT-29. Nature of the assay: Induction of apoptosis in human HT-29 cells assessed as early apoptotic cells at 10 nM after 48 hrs by Annexin V-FITC/PI staining based flow cytometry (Rvb=1.30%). It counts as functional.
Assay [18] deals with HT-29. As to the kind of experiment: Induction of apoptosis in human HT-29 cells assessed as late apoptotic cells at 10 nM after 48 hrs by Annexin V-FITC/PI staining based flow cytometry (Rvb=4.06%). It counts as functional.
The test system of assay [19] is HT-29. Nature of the assay: Induction of apoptosis in human HT-29 cells assessed as late apoptotic cells at 50 nM after 48 hrs by Annexin V-FITC/PI staining based flow cytometry (Rvb=4.06%). The assay is classed as functional.
In assay [20] the test system is HT-29. Nature of the assay: Induction of apoptosis in human HT-29 cells assessed as viable cells at 50 nM after 48 hrs by Annexin V-FITC/PI staining based flow cytometry (Rvb=93.82%). It counts as functional. Conditions: HT-29, 48 h, read-out: Activity.
Assay [21] relates to HT-29. As to the kind of experiment: Induction of apoptosis in human HT-29 cells assessed as necrotic cells at 50 nM after 48 hrs by Annexin V-FITC/PI staining based flow cytometry (Rvb=0.82%). The assay is classed as functional.
In assay [22] the test system is HT-29. As to the kind of experiment: Cell cycle arrest in human HT-29 cells assessed as accumulation at G2/M phase at 10 nM after 48 hrs by propidium iodide staining based flow cytometry (reference value: 12.47%). It counts as functional.
Assay [23] deals with Tubulin (Sus scrofa, UniProt P02554+P02550). Nature of the assay: Inhibition of porcine brain tubulin polymerization after 1 hr by fluorescence assay.
In assay [24] the test system is HT-29. As to the kind of experiment: Induction of apoptosis in human HT-29 cells assessed as necrotic cells at 10 nM after 48 hrs by Annexin V-FITC/PI staining based flow cytometry (Rvb=0.82%). It counts as functional.

pIC50: −log10 of the molar value.

As for `COc1ccc(C(=O)c2cc(OC)c(OC)c(OC)c2)cc1/C=C1/C(=O)Nc2cc(Cl)ccc21`, the pIC50 (usually the negative decadic logarithm of the IC50, by convention in mol/L) in assay [1] was 4.80; in assay [2], 4.49; in [3] it was 4.87; in assay [4] it was 4.92; in assay [5] it was 4.80.

With `C=C(c1ccc(OC)c(/C=C2/C(=O)Nc3ccc(OC)cc32)c1)c1cc(OC)c(OC)c(OC)c1`, the negative-log IC50 (pIC50) in assay [1] is 5.50; in assay [2], 5.30; in assay [3], 6.97; in [4], 5.83; in [5], 6.05.

`COc1ccc(C(=O)c2cc(OC)c(OC)c(OC)c2)cc1/C=C1/C(=O)Nc2ccc(F)cc21`: the Activity is 0.35% in [6]; 2.47% in [7]; 56.82% in [8]; 1.36% in assay [9]; 83.8% in [10]; 50.06% in [11]. Further, the Activity in assay [12] was found to be 5.42%; in [13], 0.18%; in [15], 41.27%; in assay [16], 81%; in [17], 2.88%; in assay [18] it was 9.67%. For the same compound, the Activity in [19] worked out at 24.46%; in assay [21], 2.92%; in [22], 47.12%; in assay [24] it was 0.98%. Also, the negative-log IC50 (pIC50) was 6.41 in assay [1]; 5.01 in assay [2]; 7.31 in assay [3]; 7.03 in [4]; 6.73 in [5]. For the same compound, the viability at 0.01 µM in assay [14] came to 86.5%. The viability at 0.05 µM in assay [20] was 67.2%. The IC50 (in general, the concentration that gives 50% inhibition) in assay [23] was 1.01 µM.

Take `COc1ccc2c(c1)/C(=C\c1cc(C(=O)c3cc(OC)c(OC)c(OC)c3)ccc1OC)C(=O)N2`: the Activity in assay [6] is given as 0.43%; in [7], 4.87%; in assay [8] it was 49.8%; in [9], 0.91%; in assay [10] it was 87.7%; in [11], 73.61%. For the same compound, the Activity amounted to 4.97% in [12]; 0.62% in assay [13]; 48.01% in [15]; 83.1% in assay [16]; 2.16% in assay [17]; 8.34% in assay [18]. Also, the Activity is recorded as 18.7% in [19], 3.52% in assay [21], 21.69% in assay [22] and 0.83% in assay [24]. Further, the negative-log IC50 (pIC50) in [1] is 6.57; in assay [2], 5.10; in [3], 7.35; in assay [4], 7.10; in [5], 7.02. In addition, the viability at 0.01 µM in [14] came to 88.7%. The viability at 0.05 µM in assay [20] amounted to 72.8%. The compound also yielded an IC50 in assay [23] of 1.23 µM.

As for `C=C(c1ccc(OC)c(/C=C2/C(=O)Nc3ccc(F)cc32)c1)c1cc(OC)c(OC)c(OC)c1`, the pIC50 is 5.40 in assay [1]; 5.50 in assay [2]; 7.09 in [3]; 5.93 in assay [4]; 7.08 in assay [5].

`COc1ccc(C(=O)c2cc(OC)c(OC)c(OC)c2)cc1/C=C1/C(=O)Nc2cc(Br)ccc21`: the pIC50 was 4.83 in [1]; 4.92 in assay [2]; 5.43 in assay [3]; 5.34 in assay [4]; 5.40 in assay [5].

Consider `C=C(c1ccc(OC)c(/C=C2/C(=O)Nc3ccc([N+](=O)[O-])cc32)c1)c1cc(OC)c(OC)c(OC)c1`, for which the pIC50 in assay [1] was 4.88; in assay [2], 4.71; in [3] it was 5.87; in [4] it was 5.24; in assay [5], 5.43.

Regarding `C=C(c1ccc(OC)c(/C=C2/C(=O)Nc3ccccc32)c1)c1cc(OC)c(OC)c(OC)c1`, the pIC50 in [1] was 4.69; in assay [2], 4.59; in assay [3] it was 5.19; in [4], 4.94; in assay [5] it was 5.12.

As for `C=C(c1ccc(OC)c(/C=C2/C(=O)Nc3cc(Br)ccc32)c1)c1cc(OC)c(OC)c(OC)c1`, the pIC50 is 4.68 in assay [1]; 4.68 in assay [2]; 5.08 in assay [3]; 4.90 in assay [4]; 4.98 in assay [5].

Take `COc1ccc(C(=O)c2cc(OC)c(OC)c(OC)c2)cc1/C=C1/C(=O)Nc2ccc([N+](=O)[O-])cc21`: the pIC50 in assay [1] was 4.91; in assay [2], 4.45; in assay [3] it was 5.29; in [4] it was 5.05; in assay [5], 5.16.

Take `COc1ccc(C(=O)c2cc(OC)c(OC)c(OC)c2)cc1/C=C1/C(=O)Nc2ccccc21`: the pIC50 is 4.97 in assay [1]; 4.57 in [2]; 5.56 in assay [3]; 5.17 in [4]; 5.42 in assay [5].

For `COc1ccc(C(=O)c2cc(OC)c(OC)c(OC)c2)cc1/C=C1/C(=O)Nc2ccc(Br)cc21`, the negative-log IC50 (pIC50) in [1] is 4.51; in assay [2] it was 4.72; in assay [3] it was 5.07; in assay [4] it was 5.01; in assay [5], 5.09.

On to `COc1ccc(/C=C\c2cc(OC)c(OC)c(OC)c2)cc1O` [COMBRETASTATIN A4], for which the Activity is 0.16% in assay [6]; 2.62% in [7]; 84.2% in assay [10]; 51.46% in assay [11]; 3.46% in assay [17]; 20.21% in assay [18]. Also, the Activity is on record as 45.76% in [22] and 2.93% in [24]. The negative logarithm of the IC50 (pIC50) in assay [1] is 7.34; in assay [2], 8.15; in assay [3], 7.31; in assay [4], 7.29; in assay [5], 7.64. Further, the viability at 0.01 µM in assay [14] turned out to be 73.4%.

`C=C(c1ccc(OC)c(/C=C2/C(=O)Nc3ccc(Cl)cc32)c1)c1cc(OC)c(OC)c(OC)c1`: the pIC50 in [1] was 4.82; in [2], 4.41; in assay [3], 5.37; in assay [4], 4.96; in assay [5] it was 5.25.

For `C=C(c1ccc(OC)c(/C=C2/C(=O)Nc3cc(Cl)ccc32)c1)c1cc(OC)c(OC)c(OC)c1`, the pIC50 was 4.93 in [1]; 4.94 in [2]; 5.64 in assay [3]; 5.13 in assay [4]; 5.49 in [5].

As for `C=C(c1ccc(OC)c(/C=C2/C(=O)Nc3ccc(Br)cc32)c1)c1cc(OC)c(OC)c(OC)c1`, the pIC50 was 4.74 in [1]; 4.72 in assay [2]; 5.25 in [3]; 5.13 in assay [4]; 5.08 in assay [5].

Take `COc1ccc(C(=O)c2cc(OC)c(OC)c(OC)c2)cc1/C=C1/C(=O)Nc2ccc(Cl)cc21`: the pIC50 is 4.85 in assay [1]; 4.53 in assay [2]; 5.49 in [3]; 5.02 in [4]; 5.60 in assay [5].

For the origin of these results see ChEMBL document CHEMBL3774330, “Design, synthesis of phenstatin/isocombretastatin-oxindole conjugates as antimitotic agents” (Bioorg Med Chem, 2016).
